Where “and” joins values, the source holds several entries; their conditions need not be identical. Equal values may be shown once.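 Dose response: 5 concentrations. Exposure: 48 h. Format: 96-well plates. Endpoint: linear interpolation; highest concentration if not reached. Abbreviation: GI50, concentration required for 50% inhibition of growth. TGI denotes the concentration required for complete inhibition of growth.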
What was measured:
Experiment in all cases: NCI anticancer screen, dose series, 48 h
[1] = tested on: DU-145 prostate
[2] = tested on: OVCAR-4 ovarian
[3] = tested on: PC-3 prostate
[4] = tested on: HOP-92 NSCLC
[5] = tested on: K-562 leukemia
[6] = tested on: OVCAR-3 ovarian
[7] = tested on: SR leukemia
[8] = tested on: OVCAR-5 ovarian
[9] = tested on: SF-539 CNS
[10] = tested on: M19-MEL melanoma
[11] = tested on: SNB-78 CNS

SMILES | TGI [1] | TGI [2] | TGI [3] | TGI [4] | TGI [5] | TGI [6] | TGI [7] | TGI [8] | TGI [9] | TGI [10] | GI50 [1] | GI50 [2] | GI50 [3] | GI50 [5] | GI50 [6] | GI50 [7] | GI50 [8] | GI50 [9] | TGI [11] | GI50 [4]
CC1(C)[C@@H]2CC[C@@]1(C)[C@H](O)[C@@H]2SCc1ccccc1 | 40.6 µM | 26.6 µM | 50.4 µM | 28.7 µM | > 100 µM | 31.8 µM | > 100 µM | 33.1 µM | 34.6 µM | – | – | – | – | – | – | – | – | – | – | –
Cc1ccc(/C=C2\CN(C)CC3C2=NC(=S)NC3c2ccc(C)cc2)cc1 (configuration not stated) | > 100 µM | > 100 µM | > 100 µM | > 31.1 µM | > 100 µM | > 100 µM | > 100 µM | > 100 µM | > 100 µM | – | – | – | – | – | – | – | – | – | – | –
Cc1cn([C@H]2[C@@H](CO)C[C@H]2O)c(=O)[nH]c1=O | > 100 µM | > 100 µM | > 100 µM | > 100 µM | > 100 µM | > 100 µM | > 100 µM | > 100 µM | > 100 µM | – | – | – | – | – | – | – | – | – | – | –
COc1ccc(C=Nc2ccc(-c3nc4ccccc4[nH]3)cc2)cc1OC | > 100 µM | > 100 µM | > 100 µM | > 100 µM | > 100 µM | > 100 µM | > 100 µM | > 100 µM | > 100 µM | – | – | – | – | – | – | – | – | – | – | –
COc1ccc(C(=O)c2ccc(-n3cc(/C=C/[N+](=O)[O-])c4ccccc43)cc2)cc1 | > 51.2 µM | > 100 µM | 49.9 µM | 34.9 µM | > 100 µM | 27.1 µM | > 100 µM | > 100 µM | 31.3 µM | – | – | – | – | – | – | – | – | – | – | –
Cn1c(=O)sc2cc(C(=S)N3CCOCC3)ccc21 | > 100 µM | > 100 µM | > 100 µM | > 100 µM | > 100 µM | > 100 µM | > 100 µM | > 100 µM | > 100 µM | – | – | – | – | – | – | – | – | – | – | –
COc1ccc(-c2c3ccccc3c(-c3ccc(OCCCCCBr)cc3)c3ccccc23)cc1 | – | > 100 µM | – | > 100 µM | > 100 µM | > 100 µM | > 100 µM | > 100 µM | > 100 µM | > 100 µM | – | – | – | – | – | – | – | – | – | –
CCCCCCOP(=O)(OCCCCCC)OC(C(=O)OC)C(F)(F)F (configuration not stated) | > 100 µM | > 100 µM | > 100 µM | > 100 µM | > 100 µM | > 100 µM | > 100 µM | > 100 µM | > 100 µM | – | – | – | – | – | – | – | – | – | – | –
O=S1(=O)OCCOS(=O)(=O)C1Cc1nc2ccccc2[nH]1 | > 100 µM | > 100 µM | 73.4 µM | > 100 µM | > 100 µM | > 100 µM | > 100 µM | > 100 µM | – | – | – | – | – | – | – | – | – | – | – | –
Oc1[nH]c2ccccc2c1/C=c1/cc2c(c(-c3ccc(C(F)(F)F)cc3)n1)=Nc1ccccc1-2 | 34.8 µM | 13.6 µM | 47.4 µM | – | 14.9 µM | 7.69 µM | 11.3 µM | 33.8 µM | 44.6 µM | – | 8.93 µM | 2.75 µM | 2.59 µM | 2.57 µM | 2.36 µM | 1.27 µM | 11.8 µM | 16.3 µM | – | –
CO[P@]1(=O)O[C@@H](c2ccccc2)[C@H](O)[C@@]1(O)c1ccccc1 | > 100 µM | > 100 µM | > 100 µM | > 100 µM | > 100 µM | > 100 µM | > 100 µM | > 100 µM | > 100 µM | – | – | – | – | – | – | – | – | – | – | –
NC(=S)N/N=C\CC(O)(C(F)(F)F)C(F)(F)F | > 10 µM | > 10 µM | > 10 µM | > 10 µM | > 10 µM | > 10 µM | > 10 µM | – | > 10 µM | – | – | – | – | – | – | – | – | – | – | –
CC(C)(C)OC(=O)N1CCc2c(n(C/C=C/c3ccccc3)[nH]c2=O)C1 | > 100 µM | > 100 µM | > 100 µM | > 100 µM | > 100 µM | > 100 µM | > 100 µM | – | > 100 µM | – | – | – | – | – | – | – | – | – | – | –
COC(=O)C(NC(=O)CSc1nnc(COc2ccc(Cl)cc2)n1-c1ccccc1)C(C)C (configuration not stated) | > 100 µM | 74.1 µM | 50.9 µM | 77.2 µM | > 100 µM | 31.5 µM | > 100 µM | 75.9 µM | > 100 µM | – | – | – | – | – | – | – | – | – | – | –
Nc1c(N=Nc2ccc(-c3ccc(N=Nc4c(O)ccc5cc(S(=O)(=O)O)cc(S(=O)(=O)O)c45)cc3)cc2)c(S(=O)(=O)O)cc2cc(S(=O)(=O)O)c(N=Nc3ccccc3)c(O)c12 | – | > 100 µM | – | > 100 µM | > 100 µM | > 100 µM | – | > 100 µM | > 100 µM | > 100 µM | – | – | – | – | – | – | – | – | > 100 µM | –
COc1ccc(C2=C(OC(=O)N(C)C)c3cccn3-c3cc(Cl)ccc3S2)cc1 | > 10 µM | > 10 µM | > 10 µM | > 10 µM | > 10 µM | – | > 10 µM | – | – | – | – | – | – | – | – | – | – | – | – | –
CC12CC(c3ccccc3O1)C(C(=O)Nc1cccc(F)c1)C(=O)N2 (configuration not stated) | > 100 µM | > 100 µM | > 100 µM | – | > 100 µM | > 100 µM | > 100 µM | > 100 µM | > 100 µM | – | – | – | – | – | – | – | – | – | – | –
Cc1ccc2c(c1)CC1(C2=O)[C@H](c2ccccc2)C2C(=O)c3ccc(C)cc3C2[C@H]1c1ccccc1 (some centres not stated) | > 100 µM | > 100 µM | > 100 µM | > 100 µM | > 100 µM | > 100 µM | > 100 µM | > 100 µM | > 100 µM | – | – | – | – | – | – | – | – | – | – | –
OC12CCCCCC1(N1CCOCC1)c1ccccc12 (configuration not stated) | – | > 100 µM | – | – | > 100 µM | > 100 µM | – | > 100 µM | > 100 µM | > 100 µM | – | – | – | – | – | – | – | – | > 100 µM | –
CC(C)C1CC(CO)(CNc2cc(Cl)nc(N)n2)C1 (configuration not stated) | > 100 µM | > 100 µM | > 100 µM | > 100 µM | > 100 µM | > 100 µM | > 100 µM | > 100 µM | > 100 µM | – | – | – | – | – | – | – | – | – | – | –
O=C1CSC2(CC(/C=C/c3ccccc3Br)=NN2c2cccc(S(=O)(=O)O)c2)N1c1nc2ccccc2s1 (configuration not stated) | > 100 µM | > 100 µM | > 100 µM | > 100 µM | > 100 µM | – | > 100 µM | > 100 µM | > 100 µM | – | – | – | – | – | – | – | – | – | – | –
CC(C)(C)CC(C)(C)c1ccc(OCCOCC[N+](C)(C)Cc2ccccc2)cc1 | 3.36 µM | 9.38 µM | – | 2.27 µM and 4.76 µM | 15.7 µM | 6.8 µM | – | 3.25 µM and 19.2 µM | 3.41 µM and 9.48 µM | – | 1.77 µM | – | – | – | – | 1.75 µM | 1.7 µM | 1.69 µM and 2.88 µM | 4.26 µM | 0.94 µM

Reference: PubChem BioAssay (NCI)
